Experimental data reported in patent US20080009418A1, “Selective Inhibitors” (Alchemia LTD., priority 2004, published 2008).

How the values were obtained:
Conditions in all cases: compound at 10 μM
[1] = target: T1, Human δ-opioid (DOP) (Homo sapiens, UniProt P41143); test: Radioligand binding, human δ-opioid (DOP) membranes, FlashPlate, [3H]-Bremazocine
T1 construct: purchased Perkin Elmer Biosignal
In short: (§1)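 Cloned human receptor membranes were coated onto FlashPlate wells and incubated with radioligand and compound (added from a 0.5 mM DMSO daughter plate) for 1 hour at room temperature in the dark. Scintillation counting gave percent inhibition, with DMSO defining total and reference ligand defining non-specific binding.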

[2] = target: T2, Human κ-Opioid (KOP) (Homo sapiens, UniProt P41145); test: Radioligand binding, human κ-opioid (KOP) membranes, filtration, [3H]-Diprenorphine
T2 construct: purchased Perkin Elmer Biosignal
In short: (§2)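 Filtration binding on cloned human receptor membranes (1 Unit/well), [125I]-Substance P for NK1 and [3H]-Diprenorphine for KOP, 1 h at room temperature. Filters PEI-presoaked, washed with cold 50 mM Tris-HCl pH 7.4, counted by scintillation; percent inhibition calculated, reference ligand defining non-specific binding.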

[3] = target: T3, Human Melanocortin (MC3) (Homo sapiens, UniProt P41968); test: Radioligand binding, human melanocortin MC3 membranes, FlashPlate, [125I]-NDP-αMSH
T3 construct: purchased Perkin Elmer Biosignal
In short: as §1

[4] = target: T4, Human Melanocortin (MC4) (Homo sapiens, UniProt P32245); test: Radioligand binding, human melanocortin MC4 membranes, FlashPlate, [125I]-NDP-αMSH
T4 construct: purchased Perkin Elmer Biosignal
In short: as §1

[5] = target: T5, Human melanocortin (MC5) (Homo sapiens, UniProt P33032); test: Radioligand binding, human melanocortin MC5 membranes, FlashPlate, [125I]-NDP-αMSH
T5 construct: purchased Perkin Elmer Biosignal
In short: as §1

[6] = target: T6, Human melanin-concentrating hormone (MCH1) (Homo sapiens, UniProt Q99705); test: Radioligand binding, human melanin-concentrating hormone MCH1 membranes, FlashPlate, [125I]-S36057
T6 construct: purchased Perkin Elmer Biosignal
In short: as §1

[7] = target: T7, Human μ-opioid (MOP) (Homo sapiens, UniProt P35372); test: Radioligand binding, human μ-opioid (MOP) membranes, FlashPlate, [3H]-Naloxone
T7 construct: purchased Perkin Elmer Biosignal
In short: as §1

[8] = target: T8, Human neurokinin (NK1) (Homo sapiens, UniProt P25103); test: Radioligand binding, human neurokinin NK1 membranes, filtration, [125I]-Substance P
T8 construct: purchased Perkin Elmer Biosignal
In short: as §2

[9] = target: T9, Human neuropeptide Y (NPY-Y1) (Homo sapiens, UniProt P25929); test: Radioligand binding, human neuropeptide Y NPY-Y1 membranes, FlashPlate, [125I]-PYY
T9 construct: purchased Perkin Elmer Biosignal
T9 sequence (P25929 1-384): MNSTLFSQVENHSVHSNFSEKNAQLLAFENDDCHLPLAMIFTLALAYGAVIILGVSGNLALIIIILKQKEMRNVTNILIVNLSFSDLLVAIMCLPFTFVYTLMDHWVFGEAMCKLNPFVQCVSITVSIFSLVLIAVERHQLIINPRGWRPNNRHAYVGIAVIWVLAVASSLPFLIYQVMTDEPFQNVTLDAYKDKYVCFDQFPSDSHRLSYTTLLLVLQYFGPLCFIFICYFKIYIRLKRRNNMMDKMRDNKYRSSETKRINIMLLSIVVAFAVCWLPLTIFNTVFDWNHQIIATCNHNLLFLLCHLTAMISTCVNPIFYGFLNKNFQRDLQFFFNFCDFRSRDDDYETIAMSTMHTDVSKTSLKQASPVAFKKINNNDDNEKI
In short: as §1

[10] = target: T10, Human opioid (ORL1) (Homo sapiens, UniProt P41146); test: Radioligand binding, human opioid ORL1 membranes, FlashPlate, [125I]-Nociceptin
T10 construct: purchased Perkin Elmer Biosignal
In short: as §1

[11] = target: T11, Mouse urotensin (mUR2) (Mus musculus, UniProt Q8VIH9); test: Radioligand binding, mouse urotensin mUR2 membranes, FlashPlate, [125I]-Urotensin II
T11 construct: purchased Perkin Elmer Biosignal
T11 sequence (Q8VIH9 1-385): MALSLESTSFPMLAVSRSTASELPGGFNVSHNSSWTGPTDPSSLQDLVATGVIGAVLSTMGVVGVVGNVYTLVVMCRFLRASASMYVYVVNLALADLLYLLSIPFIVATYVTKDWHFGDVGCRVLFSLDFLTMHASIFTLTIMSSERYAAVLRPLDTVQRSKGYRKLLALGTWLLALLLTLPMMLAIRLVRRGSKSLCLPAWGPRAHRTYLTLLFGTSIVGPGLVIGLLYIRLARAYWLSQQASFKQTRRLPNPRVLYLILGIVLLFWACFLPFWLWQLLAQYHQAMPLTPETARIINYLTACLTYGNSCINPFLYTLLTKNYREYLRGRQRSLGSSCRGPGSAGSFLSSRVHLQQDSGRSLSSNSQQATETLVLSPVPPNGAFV
In short: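 Cloned mouse urotensin (mUR2) receptor membranes from Perkin Elmer Biosignal were immobilized in FlashPlate microplates using a proprietary coating. Each well got 19.5 μl buffer, then 0.5 μl of DMSO, reference ligand, or compound. Adding 5 μl of [125I]-Urotensin II, diluted to 5× final concentration in binding buffer, started binding. Plates were sealed with TopSeal-A and incubated 1 hour at room temperature in the dark. Wells were counted for 30 seconds each on a TopCount after a 60-second delay, and percentage inhibition was calculated.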

T1 sequence (P41143 whole entry): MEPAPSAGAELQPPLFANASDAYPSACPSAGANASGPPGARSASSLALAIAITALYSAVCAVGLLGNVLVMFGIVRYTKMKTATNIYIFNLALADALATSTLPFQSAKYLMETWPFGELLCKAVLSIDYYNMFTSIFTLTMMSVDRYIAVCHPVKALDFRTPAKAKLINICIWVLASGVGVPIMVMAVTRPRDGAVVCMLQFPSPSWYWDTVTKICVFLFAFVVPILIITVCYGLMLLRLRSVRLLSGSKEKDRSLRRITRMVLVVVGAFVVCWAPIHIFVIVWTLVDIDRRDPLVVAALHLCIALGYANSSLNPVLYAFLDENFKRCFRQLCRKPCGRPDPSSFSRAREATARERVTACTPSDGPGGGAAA
T2 sequence (P41145 whole entry): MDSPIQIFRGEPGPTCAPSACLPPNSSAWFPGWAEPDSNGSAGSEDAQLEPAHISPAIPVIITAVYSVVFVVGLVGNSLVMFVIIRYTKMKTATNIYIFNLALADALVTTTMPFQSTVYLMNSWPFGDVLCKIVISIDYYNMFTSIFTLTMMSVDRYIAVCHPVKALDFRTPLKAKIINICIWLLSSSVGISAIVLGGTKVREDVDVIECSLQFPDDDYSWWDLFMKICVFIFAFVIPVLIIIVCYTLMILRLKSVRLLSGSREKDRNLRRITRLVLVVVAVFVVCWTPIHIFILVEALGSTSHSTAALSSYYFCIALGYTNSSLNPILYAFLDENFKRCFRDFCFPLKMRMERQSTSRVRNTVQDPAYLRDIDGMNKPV
T7 sequence (P35372 whole entry): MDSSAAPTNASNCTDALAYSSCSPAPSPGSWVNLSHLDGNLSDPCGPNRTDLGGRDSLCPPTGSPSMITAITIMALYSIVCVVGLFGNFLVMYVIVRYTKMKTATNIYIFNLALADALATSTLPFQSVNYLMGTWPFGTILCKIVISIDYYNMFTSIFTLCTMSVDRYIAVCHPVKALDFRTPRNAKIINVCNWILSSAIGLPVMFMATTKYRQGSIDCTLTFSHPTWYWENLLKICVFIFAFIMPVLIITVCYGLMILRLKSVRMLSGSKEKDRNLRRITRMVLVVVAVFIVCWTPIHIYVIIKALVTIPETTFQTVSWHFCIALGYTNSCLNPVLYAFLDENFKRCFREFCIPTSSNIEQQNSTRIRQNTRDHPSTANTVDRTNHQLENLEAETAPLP
T4 sequence (P32245 whole entry): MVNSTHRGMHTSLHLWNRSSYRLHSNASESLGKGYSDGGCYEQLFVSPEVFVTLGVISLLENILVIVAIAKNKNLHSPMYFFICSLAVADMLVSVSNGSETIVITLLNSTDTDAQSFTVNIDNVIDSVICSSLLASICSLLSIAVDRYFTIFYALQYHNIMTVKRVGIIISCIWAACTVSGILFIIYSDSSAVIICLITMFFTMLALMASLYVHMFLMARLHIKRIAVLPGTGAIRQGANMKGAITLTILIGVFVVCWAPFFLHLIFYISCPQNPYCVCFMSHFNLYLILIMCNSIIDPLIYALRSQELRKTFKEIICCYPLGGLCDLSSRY
T3 sequence (P41968 whole entry): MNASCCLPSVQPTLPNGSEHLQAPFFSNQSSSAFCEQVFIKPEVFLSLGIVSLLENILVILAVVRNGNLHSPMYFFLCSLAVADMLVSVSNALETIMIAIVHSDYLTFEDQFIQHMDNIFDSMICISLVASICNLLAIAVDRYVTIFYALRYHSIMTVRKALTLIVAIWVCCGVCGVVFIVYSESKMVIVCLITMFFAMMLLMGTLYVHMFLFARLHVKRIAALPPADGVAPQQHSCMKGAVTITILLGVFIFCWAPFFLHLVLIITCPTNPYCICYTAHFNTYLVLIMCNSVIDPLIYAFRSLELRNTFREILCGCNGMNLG
T5 sequence (P33032 whole entry): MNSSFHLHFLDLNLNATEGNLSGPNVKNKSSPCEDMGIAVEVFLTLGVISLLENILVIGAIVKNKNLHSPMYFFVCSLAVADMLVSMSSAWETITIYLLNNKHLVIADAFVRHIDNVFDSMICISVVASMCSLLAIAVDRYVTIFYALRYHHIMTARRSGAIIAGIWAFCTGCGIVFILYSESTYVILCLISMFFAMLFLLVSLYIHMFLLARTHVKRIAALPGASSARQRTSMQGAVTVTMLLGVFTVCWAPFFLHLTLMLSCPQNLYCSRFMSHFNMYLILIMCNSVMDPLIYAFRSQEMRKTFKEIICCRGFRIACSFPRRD
T10 sequence (P41146 whole entry): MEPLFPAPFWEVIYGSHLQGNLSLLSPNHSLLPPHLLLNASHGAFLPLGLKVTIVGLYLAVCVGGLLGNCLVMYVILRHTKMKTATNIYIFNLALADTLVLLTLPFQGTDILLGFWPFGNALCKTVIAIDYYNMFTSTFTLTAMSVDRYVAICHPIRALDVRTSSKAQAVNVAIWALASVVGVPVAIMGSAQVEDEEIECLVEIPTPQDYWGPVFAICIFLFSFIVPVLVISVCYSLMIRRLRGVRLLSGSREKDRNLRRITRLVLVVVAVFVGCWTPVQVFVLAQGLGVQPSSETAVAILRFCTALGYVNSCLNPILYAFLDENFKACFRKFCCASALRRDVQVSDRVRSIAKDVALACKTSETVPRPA
T6 sequence (Q99705 whole entry): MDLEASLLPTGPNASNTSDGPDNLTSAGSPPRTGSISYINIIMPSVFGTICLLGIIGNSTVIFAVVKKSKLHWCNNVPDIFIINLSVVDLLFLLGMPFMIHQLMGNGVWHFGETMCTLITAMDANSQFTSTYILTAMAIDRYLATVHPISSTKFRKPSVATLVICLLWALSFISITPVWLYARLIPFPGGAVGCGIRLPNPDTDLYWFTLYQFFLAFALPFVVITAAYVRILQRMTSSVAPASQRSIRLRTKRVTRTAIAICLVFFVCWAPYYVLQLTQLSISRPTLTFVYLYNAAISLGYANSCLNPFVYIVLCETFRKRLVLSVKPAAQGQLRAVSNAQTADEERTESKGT
T8 sequence (P25103 whole entry): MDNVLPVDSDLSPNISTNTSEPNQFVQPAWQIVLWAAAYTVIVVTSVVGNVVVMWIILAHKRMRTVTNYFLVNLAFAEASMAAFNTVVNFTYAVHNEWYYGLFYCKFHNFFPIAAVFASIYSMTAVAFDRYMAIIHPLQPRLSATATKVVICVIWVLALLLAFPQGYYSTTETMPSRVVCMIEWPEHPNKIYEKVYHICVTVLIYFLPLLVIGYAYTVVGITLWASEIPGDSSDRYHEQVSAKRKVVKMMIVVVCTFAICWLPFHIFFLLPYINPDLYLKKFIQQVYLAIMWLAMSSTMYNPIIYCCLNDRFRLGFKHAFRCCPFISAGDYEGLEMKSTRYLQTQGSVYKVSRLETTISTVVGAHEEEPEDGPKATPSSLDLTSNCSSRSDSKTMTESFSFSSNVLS

CO[C@H]1[C@H](O)[C@@H](COCc2cccc(O)c2)OC(OCc2ccc3ccccc3c2)[C@@H]1NC(=O)CCNC(=N)N (stereo partly drawn) [compound 151]
A1 radioligand binding, percentage inhibition ([1]; [3H]-Bremazocine): − (“−” indicates less than 50% inhibition at 10 μM)
A2 radioligand binding, percentage inhibition ([2]; [3H]-Diprenorphine): − (“−” indicates less than 50% inhibition at 10 μM)
A3 radioligand binding, percentage inhibition ([3]; [125I]-NDP-αMSH): − (“−” indicates less than 50% inhibition at 10 μM)
A4 radioligand binding, percentage inhibition ([4]; [125I]-NDP-αMSH): − (“−” indicates less than 50% inhibition at 10 μM)
A5 radioligand binding, percentage inhibition ([5]; [125I]-NDP-αMSH): − (“−” indicates less than 50% inhibition at 10 μM)
A6 radioligand binding, percentage inhibition ([6]; [125I]-S36057): − (“−” indicates less than 50% inhibition at 10 μM)
A7 radioligand binding, percentage inhibition ([7]; [3H]-Naloxone): + (“+” indicates greater than 50% inhibition at 10 μM)
A8 radioligand binding, percentage inhibition ([8]; [125I]-Substance P): − (“−” indicates less than 50% inhibition at 10 μM)
A9 radioligand binding, percentage inhibition ([9]; [125I]-PYY): − (“−” indicates less than 50% inhibition at 10 μM)
A10 radioligand binding, percentage inhibition ([10]; [125I]-Nociceptin): − (“−” indicates less than 50% inhibition at 10 μM)
A11 radioligand binding, percentage inhibition ([11]; [125I]-Urotensin II): − (“−” indicates less than 50% inhibition at 10 μM)

COC[C@H]1OC(OCc2ccc(-c3ccccc3)cc2)[C@H](NC(=O)CNC(=N)N)[C@@H](OCc2ccc(-c3ccccc3)cc2)[C@@H]1O (stereo partly drawn) [compound 1]
A1 radioligand binding inhibition ([1]; human δ-opioid (DOP) membranes): − (“−” indicates less than 50% inhibition at 10 μM)
A2 radioligand binding inhibition ([2]; human κ-opioid (KOP) membranes): − (“−” indicates less than 50% inhibition at 10 μM)
A3 radioligand binding inhibition ([3]; human melanocortin MC3 membranes): + (“+” indicates greater than 50% inhibition at 10 μM)
A4 radioligand binding inhibition ([4]; human melanocortin MC4 membranes): + (“+” indicates greater than 50% inhibition at 10 μM)
A5 radioligand binding inhibition ([5]; human melanocortin MC5 membranes): + (“+” indicates greater than 50% inhibition at 10 μM)
A6 radioligand binding inhibition ([6]; human MCH1 membranes): + (“+” indicates greater than 50% inhibition at 10 μM)
A7 radioligand binding inhibition ([7]; human μ-opioid (MOP) membranes): − (“−” indicates less than 50% inhibition at 10 μM)
A8 radioligand binding inhibition ([8]; human neurokinin NK1 membranes): + (“+” indicates greater than 50% inhibition at 10 μM)
A9 radioligand binding inhibition ([9]; human NPY-Y1 membranes): − (“−” indicates less than 50% inhibition at 10 μM)
A10 radioligand binding inhibition ([10]; human ORL1 membranes): − (“−” indicates less than 50% inhibition at 10 μM)
A11 radioligand binding inhibition ([11]; mouse urotensin mUR2 membranes): − (“−” indicates less than 50% inhibition at 10 μM)

COCC1OC(OCc2ccc3ccccc3c2)C(NC(=O)CCNC(=N)N)C(OCc2ccc3ccccc3c2)C1O (stereo not drawn) [compound 547]
A1: inhibition of radioligand binding, human δ-opioid (DOP) ([1]; [3H]-Bremazocine): − (“−” indicates less than 50% inhibition at 10 μM)
A2: inhibition of radioligand binding, human κ-opioid (KOP) ([2]; [3H]-Diprenorphine): − (“−” indicates less than 50% inhibition at 10 μM)
A3: inhibition of radioligand binding, human melanocortin (MC3) ([3]; [125I]-NDP-αMSH): − (“−” indicates less than 50% inhibition at 10 μM)
A4: inhibition of radioligand binding, human melanocortin (MC4) ([4]; [125I]-NDP-αMSH): − (“−” indicates less than 50% inhibition at 10 μM)
A5: inhibition of radioligand binding, human melanocortin (MC5) ([5]; [125I]-NDP-αMSH): − (“−” indicates less than 50% inhibition at 10 μM)
A6: inhibition of radioligand binding, human melanin-concentrating hormone (MCH1) ([6]; [125I]-S36057): + (“+” indicates greater than 50% inhibition at 10 μM)
A7: inhibition of radioligand binding, human μ-opioid (MOP) ([7]; [3H]-Naloxone): − (“−” indicates less than 50% inhibition at 10 μM)
A8: inhibition of radioligand binding, human neurokinin (NK1) ([8]; [125I]-Substance P): + (“+” indicates greater than 50% inhibition at 10 μM)
A9: inhibition of radioligand binding, human neuropeptide Y (NPY-Y1) ([9]; [125I]-PYY): − (“−” indicates less than 50% inhibition at 10 μM)
A10: inhibition of radioligand binding, human opioid (ORL1) ([10]; [125I]-Nociceptin): − (“−” indicates less than 50% inhibition at 10 μM)
A11: inhibition of radioligand binding, mouse urotensin (mUR2) ([11]; [125I]-Urotensin II): − (“−” indicates less than 50% inhibition at 10 μM)
